Measured values as given in US20230312556A1, “ARYLAMIDE COMPOUND, PHARMACEUTICAL COMPOSITION COMPRISING SAME, AND PREPARATION METHOD THEREFOR AND USE THEREOF” (SICHUAN KELUN-BIOTECH BIOPHARMACEUTICAL CO., LTD., priority 2020, published 2023).

Assays:
[1] = target: mutant BRAF enzyme (BRAF-V600E) (Homo sapiens (Human), UniProt P15056, V600E); assay: RAF inhibition assay (TB-PMAP2K1 kit), BRAF-V600E; format: biochemical; details: FLUORESCEIN-MAP2K1 substrate, 60 min reaction
[2] = target: mutant CRAF enzyme (RAF1 Y340D and Y341D) (Homo sapiens (Human), UniProt P04049, Y340D/Y341D); assay: RAF inhibition assay (TB-PMAP2K1 kit), mutant CRAF; format: biochemical; details: FLUORESCEIN-MAP2K1 substrate, 60 min reaction
Chain of mutant CRAF enzyme (RAF1 Y340D and Y341D) (P04049 whole entry Y340D/Y341D): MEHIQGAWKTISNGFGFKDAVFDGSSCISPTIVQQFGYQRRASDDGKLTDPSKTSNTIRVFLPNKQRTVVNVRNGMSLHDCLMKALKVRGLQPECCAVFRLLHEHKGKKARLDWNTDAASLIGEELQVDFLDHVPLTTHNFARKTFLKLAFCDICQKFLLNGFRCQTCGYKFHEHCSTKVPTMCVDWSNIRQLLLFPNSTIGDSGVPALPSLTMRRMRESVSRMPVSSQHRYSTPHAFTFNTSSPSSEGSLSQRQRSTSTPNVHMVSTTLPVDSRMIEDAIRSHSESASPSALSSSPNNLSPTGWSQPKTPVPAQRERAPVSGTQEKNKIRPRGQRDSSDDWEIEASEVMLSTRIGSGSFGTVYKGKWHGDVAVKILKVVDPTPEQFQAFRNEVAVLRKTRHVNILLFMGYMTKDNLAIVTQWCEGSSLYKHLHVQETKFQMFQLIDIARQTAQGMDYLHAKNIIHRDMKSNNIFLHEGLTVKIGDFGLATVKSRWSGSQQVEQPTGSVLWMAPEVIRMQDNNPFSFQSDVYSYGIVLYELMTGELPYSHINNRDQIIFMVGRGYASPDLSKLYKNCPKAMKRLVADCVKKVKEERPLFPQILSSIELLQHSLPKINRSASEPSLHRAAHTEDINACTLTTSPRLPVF

Chain of mutant BRAF enzyme (BRAF-V600E) (P15056 whole entry V600E): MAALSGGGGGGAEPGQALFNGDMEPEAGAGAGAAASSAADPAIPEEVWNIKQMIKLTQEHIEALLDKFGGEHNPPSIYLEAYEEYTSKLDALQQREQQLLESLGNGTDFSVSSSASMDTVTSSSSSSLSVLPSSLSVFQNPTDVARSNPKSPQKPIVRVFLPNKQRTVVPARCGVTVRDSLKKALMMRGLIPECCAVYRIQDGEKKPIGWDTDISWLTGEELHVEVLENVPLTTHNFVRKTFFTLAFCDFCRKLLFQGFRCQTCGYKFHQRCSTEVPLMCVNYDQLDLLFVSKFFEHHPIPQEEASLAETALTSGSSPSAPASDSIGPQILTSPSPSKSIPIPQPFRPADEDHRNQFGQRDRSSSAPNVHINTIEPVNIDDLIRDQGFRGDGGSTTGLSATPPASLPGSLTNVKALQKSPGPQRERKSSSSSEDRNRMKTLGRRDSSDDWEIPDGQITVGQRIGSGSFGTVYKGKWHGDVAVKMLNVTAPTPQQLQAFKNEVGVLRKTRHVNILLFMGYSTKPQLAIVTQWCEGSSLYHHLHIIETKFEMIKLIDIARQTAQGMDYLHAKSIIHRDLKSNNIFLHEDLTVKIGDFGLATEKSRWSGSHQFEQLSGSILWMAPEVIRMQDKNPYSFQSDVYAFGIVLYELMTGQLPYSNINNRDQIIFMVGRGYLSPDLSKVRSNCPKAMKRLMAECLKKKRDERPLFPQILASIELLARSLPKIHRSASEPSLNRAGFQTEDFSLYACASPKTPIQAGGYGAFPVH

Row | Compound | IC50 [1] [nM] | IC50 [2] [nM]
1 | Cc1ccc2c(Nc3cc(F)c(F)cc3F)nccc2c1NC(=O)c1cccc2c(N)ncnc12 [Compound 90, 4-amino-N-(6-methyl-1-((2,4,5-trifluorophenyl)amino)isoquinolin-5-yl)quinazoline-8-carboxamide] | 18.6 ± 2.25 | 14.2 ± 6.59
2 | Cc1ccc2c(Nc3ccc(F)cc3F)nccc2c1NC(=O)c1cc(F)cc2c(N)ncnc12 [Compound 85, 4-amino-N-(1-((2,4-difluorophenyl)amino)-6-methylisoquinolin-5-yl)-6-fluoroquinazoline-8-carboxamide] | 9.02 ± 0.86 | 4.43 ± 0.32
3 | Cc1ccc2c(C(O)c3ccc(Cl)cc3F)nccc2c1NC(=O)c1csc2c(N)ncnc12 (stereo not drawn) [Compound 28, 4-amino-N-(1-((4-chloro-2-fluorophenyl)(hydroxy)methyl)-6-methylisoquinolin-5-yl)thieno[3,2-d]pyrimidine-7-carboxamide] | 4.58 ± 0.72 | 3.48 ± 0.48
4 | Cc1ccc2c(C(C)Oc3ccccc3)nccc2c1NC(=O)c1csc2c(N)ncnc12 (stereo not drawn) [Compound 35, 4-amino-N-(6-methyl-1-(1-phenoxyethyl)isoquinolin-5-yl)thieno[3,2-d]pyrimidine-7-carboxamide] | 50.4 ± 12.6 | 15.4 ± 1.89
5 | Cc1ccc2c(Nc3cc(Cl)ccc3F)nccc2c1NC(=O)c1cccc2c(N)ncnc12 [Compound 73, 4-amino-N-(1-((5-chloro-2-fluorophenyl)amino)-6-methylisoquinolin-5-yl)quinazoline-8-carboxamide] | 11.9 ± 2.3 | 8.78 ± 1.48
6 | COc1ccc(Nc2nccc3c(NC(=O)c4cccc5c(N)ncnc45)c(C)ccc23)c(F)c1 [Compound 60, 4-amino-N-(1-((2-fluoro-4-methoxyphenyl)amino)-6-methylisoquinolin-5-yl)quinazoline-8-carboxamide] | 6.31 ± 1.09 | 3.14 ± 0.09
7 | Cc1ccc2c(Nc3cccc(C(F)(F)F)c3)nccc2c1NC(=O)c1cnc2c(N)ncnn12 [Compound 43, 4-amino-N-(6-methyl-1-((3-(trifluoromethyl)phenyl)amino)isoquinolin-5-yl)imidazo[2,1-f][1,2,4]triazine-7-carboxamide] | 4.84 ± 0.97 | 4.49 ± 0.95
8 | Cc1ccc2c(Nc3ccc(Cl)cc3F)nccc2c1NC(=O)c1cccc2c(N)ncnc12 [Compound 41, 4-amino-N-(1-((4-chloro-2-fluorophenyl)amino)-6-methylisoquinolin-5-yl)quinazoline-8-carboxamide] | 12.7 ± 2.28 | 25 ± 9.32
9 | Cc1ccc2c(Nc3ccccc3F)nccc2c1NC(=O)c1cccc2c(N)ncnc12 [Compound 39, 4-amino-N-(1-((2-fluorophenyl)amino)-6-methylisoquinolin-5-yl)quinazoline-8-carboxamide] | 1.74 ± 0.23 | 2.6 ± 0.21
10 | Cc1ccc2c(Nc3c(F)cc(F)cc3F)nccc2c1NC(=O)c1cccc2c(N)ncnc12 [Compound 94, 4-amino-N-(6-methyl-1-((2,4,6-trifluorophenyl)amino)isoquinolin-5-yl)quinazoline-8-carboxamide] | 3.46 ± 0.22 | 4.24 ± 0.17
11 | Nc1ncnc2c(C(=O)Nc3c(F)ccc4c(Nc5cccc(Cl)c5F)nccc34)cccc12 [Compound 92, 4-amino-N-(1-((3-chloro-2-fluorophenyl)amino)-6-fluoroisoquinolin-5-yl)quinazoline-8-carboxamide] | 5.34 ± 0.75 | 10.8 ± 4.78
12 | Cc1ccc2c(Nc3ccc(F)c(Cl)c3)nccc2c1NC(=O)c1cnc2c(N)ncnn12 [Compound 58, 4-amino-N-(1-((3-chloro-4-fluorophenyl)amino)-6-methylisoquinolin-5-yl)imidazo[2,1-f][1,2,4]triazine-7-carboxamide] | 4.47 ± 0.6 | 2.68 ± 0.13
13 | Cc1ccc2c(Nc3cccc(Cl)c3)nccc2c1NC(=O)c1cccc2c(N)ncnc12 [Compound 38, 4-amino-N-(1-((3-chlorophenyl)amino)-6-methylisoquinolin-5-yl)quinazoline-8-carboxamide] | 9.5 ± 2.68 | 10.8 ± 2.02
14 | Cc1ccc2c(Nc3cccc(Cl)c3F)nccc2c1NC(=O)c1cc(F)cc2c(N)ncnc12 [Compound 46, 4-amino-N-(1-((3-chloro-2-fluorophenyl)amino)-6-methylisoquinolin-5-yl)-6-fluoroquinazoline-8-carboxamide] | 16.2 ± 5.93 | 38.1 ± 21.9
15 | Cc1ccc2c(Nc3cccc(Cl)c3F)nccc2c1NC(=O)c1ccc(F)c2c(N)ncnc12 [Compound 93, 4-amino-N-(1-((3-chloro-2-fluorophenyl)amino)-6-methylisoquinolin-5-yl)-5-fluoroquinazoline-8-carboxamide] | 5.03 ± 0.54 | 5.73 ± 0.36
16 | Cc1ccc2c(C(=O)c3cccc(C(F)(F)F)c3)nccc2c1NC(=O)c1csc2c(N)ncnc12 [Compound 22, 4-amino-N-(6-methyl-1-(3-(trifluoromethyl)benzoyl)isoquinolin-5-yl)thieno[3,2-d]pyrimidine-7-carboxamide] | 26.8 ± 6.82 | 14.5 ± 9.94
17 | Cc1ccc2c(Nc3cc(S(C)(=O)=O)ccc3F)nccc2c1NC(=O)c1cccc2c(N)ncnc12 [Compound 89, 4-amino-N-(1-((2-fluoro-5-(methylsulfonyl)phenyl)amino)-6-methylisoquinolin-5-yl)quinazoline-8-carboxamide] | 7.58 ± 0.51 | 4.26 ± 0.16
18 | Cc1ccc2c(Nc3cccc(Cl)c3F)nccc2c1NC(=O)c1cccc2c(N)ncnc12 [Compound 1, 4-amino-N-(1-((3-chloro-2-fluorophenyl)amino)-6-methylisoquinolin-5-yl)quinazoline-8-carboxamide] | 4.71 ± 2.62 | 5.4 ± 0.6
